Assay results reported in paper PMC4303311 (Biochemistry, 2014).

Target: T1, bacteriorhodopsin (BR) (Halobacterium salinarum, UniProt P02945)
T1 sequence (P02945 14-262): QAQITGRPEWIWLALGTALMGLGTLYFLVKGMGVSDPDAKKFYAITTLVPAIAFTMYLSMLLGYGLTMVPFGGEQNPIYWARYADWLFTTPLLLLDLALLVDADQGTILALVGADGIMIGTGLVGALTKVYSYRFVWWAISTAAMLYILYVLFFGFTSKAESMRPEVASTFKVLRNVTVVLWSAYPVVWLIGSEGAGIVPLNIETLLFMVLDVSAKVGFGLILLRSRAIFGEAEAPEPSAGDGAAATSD
Test: low-temperature FTIR-difference spectroscopy
Format: binding
Settings: covalent; protonated Schiff base; 80 K; native purple membrane

CC1=C(/C=C/C(C)=C/C=C/C(C)=C/C=O)C(C)(C)CCC1 [A1 retinal, all-trans-retinal]
low-temperature FTIR-difference spectroscopy: Negative bands appear at similar frequencies in the FTIR-difference spectrum of CaChR1 and BR
